In patent publication US20160250142A1, “INHALED AEROSOLIZED IMMUNO-CHEMOTHERAPY FOR THE TREATEMENT OF MDR TB” (priority 2013, published 2016):
Where “and” joins values, the source holds several entries; their conditions need not be identical. Equal entries are not always repeated. Where two headings read alike, the source gives them in different places.

B1: Actimmune: Actimmune® (IFN-γ; Interferon gamma-1b), 100 μg/0.5 mL vial diluted 1:1400 (protein, UniProt P01579 24-161, looked up)
Interferon gamma: QDPYVKEAENLKKYFNAGHSDVADNGTLFLGILKNWKEESDRKIMQSQIVSFYFKLFKNFKDDQSIQKSVETIKEDMNVKFFNSNKKKRDDFEKLTNYSVTDLNVQRKAIHELIQVMAELSPAAKTGKRKRSQMLFRG

Columns and labels:
[1] = NGI impactor test of nebulized respiratory solutions (aerosol particle size); type: physicochemical; details: fractions by HPLC
Procedure: FIG. 1. Graphical representation of the NGI impactor test for Metronidazole respiratory solution (8 mg/mL).
FIG. 2. Graphical representation of the NGI impactor test for Amikacin respiratory solution (200 mg/mL).
FIG. 3. Graphical representation of the NGI impactor test for Levofloxacin respiratory solution (250 mg/mL).
The nebulization drug formulations were nebulized and passed through an NGI impactor (Westech Corporation). These experiments show the fraction of drug in various stages of the impactor (FIGS. 1-3). It was shown that significant amounts of the drug compounds were obtained at the different stages, which corresponds to the respirable fraction that would be deposited in the lungs. The drug fractions were analyzed by HPLC.

[2] = type: in vivo, female C57BL/6 mice; details: number of animals
Procedure: Detailed observations were recorded prior to dosing and prior to euthanasia.
All animals survived to their scheduled euthanasia time point on Day 0 (1 hour or 8 hours post dosing). All animals were normal (no clinical abnormalities) prior to dosing on Day 0 and prior to euthanasia 1 hour or 8 hours post dosing.

[3] = tested on: TB (Mycobacterium tuberculosis); details: reported for reference only; metronidazole MIC not established for TB; cited from earlier work
[4] = Plasma and lung drug levels in mice after MicroSprayer endotracheal delivery (LC/MS/MS); details: for concentration at 1 h / concentration at 8 h: female, C57BL/6, mouse; for Lung levels compared to plasma levels / Plasma and lung levels 8 hours post dose compared to 1 hour post dose: endotracheal delivery; for Lung Levels: 8 hour (Range): Table 14 summary, dose delivered 240/150/50 μg in 100 μL
Procedure: Observations were taken at 1 and 8 hour time points within lung tissue as well as the plasma of individual animals.
For microsprayer dosing via endotracheal administration, mice were anesthetized by Ketamine/Xylazine (K/X) sedation (50 mg/kg Ketamine and 5 mg/kg Xylazine) administered intraperitoneally (IP). […] A Bair Hugger warm air unit was used to keep animals warm during recovery from K/X anesthesia (i.e. after dosing).
On Day 0, mice were endotracheally intubated with a MicroSprayer® Aerosolizer (Penn-Century™, Inc.; Wyndmoor, Pa.) and test articles were delivered in the airways at a dose volume of 100 μL/dose at various dose levels.
Animals were used for collection of blood samples and the entire lung for plasma and drug level determinations. Each mouse was anesthetized with CO2/O2 and terminally bled via retro-orbital into tubes containing K2EDTA. Upon collection each blood sample was mixed by gentle inversion, placed on ice, and subsequently centrifuged to separate plasma. Plasma samples were processed on the day they were collected, or were snap frozen using liquid nitrogen and stored frozen (at or below −70° C.) until analyzed.
Animals in Subgroup A were used for collection of blood samples for plasma drug level determinations at the 1 hour post dose time point following Day 0 dosing; samples were collected within ±3% of target time. Animals in Subgroup B were used for collection of blood samples for plasma drug level determinations at the 8 hour post dose time point following Day 0 dosing; samples were collected within ±3% of target time (Table 8).
Immediately following each subgroups blood collection time point, each animal was euthanized using CO2 and the entire lung was collected for tissue drug level determinations (within 15 minutes after the blood sample), weighed, and snap-frozen. Lung samples were snap frozen using liquid nitrogen or dry ice and stored frozen (at or below −70° C.) until analyzed. […] Animals in Groups 1-3 had aerosol content (ng/mL), plasma content (ng/mL) and lung level (ng/g) assessed for parent using an appropriate LC/MS/MS method.

[5] = Human IFN-γ levels in mouse lung and plasma after aerosol delivery (ELISA); type: in vivo, female C57BL/6 mice; details: for IFN-g Level in mouse plasma: plasma diluted 1:2, ELISA sensitivity <2 pg/mL; for IFN-g Level in lung homogenate: mouse lung homogenized in 10 mL buffer; for IFN-g Level in lung homogenate / ng of IFN-g per gm of tissue: individual animals; for ng of IFN-g per gm of tissue / ng of IFN-g per gm of tissue, Mean: mouse lung; for ng of IFN-g per gm of tissue, Mean: mean of 3
Procedure: Actimmune® (IFN-γ; Interferon gamma-1b) was diluted in the dilution solution excipient as per manufacturer's directions. The contents of one (1) vial (100 μg/0.5 mL) were gently diluted to a final volume of 700 mL using the dilution solution excipient. This represented a 1:1400 dilution. Test articles A-C were supplied in a ready to use form and no additional formulations were required. All residual test articles were stored at room temperature (15-30° C.) or refrigerated (2-8° C.).

[6] = lung, Lung levels 1 hour post dose (range), mice, endotracheal MicroSprayer, Subgroup A
[7] = lung, Lung levels 8 hour post dose (range), mice, endotracheal MicroSprayer, Subgroup B
[8] = plasma, Plasma levels 1 hour post dose (range), mice, endotracheal MicroSprayer, Subgroup A, 3 animals
[9] = plasma, Plasma levels 8 hour post dose (range), mice, endotracheal MicroSprayer, Subgroup B, 3 animals
[10] = mice, IT, 1 hr, individual animals
[11] = mice, IT, 1 hr, individual animals, nominal dose 0.48/0.3/0.1 mg/animal (delivered about 50%)
[12] = mice, IT, 8 hr, individual animals
[13] = mice, IT, 8 hr, individual animals, nominal dose 0.48/0.3/0.1 mg/animal
[14] = lung, Lung Concentration (μg/g) of Tissue, mice, IT, 1 hr, individual animals
[15] = lung, Lung Concentration, mice, IT, 1 hr, individual animals
[16] = plasma, Plasma Concentration, mice, IT, 1 hr, individual animals, nominal dose 0.48/0.3/0.1 mg/animal (delivered about 50%)
[17] = plasma, Plasma Concentration, mice, IT, 8 hr, individual animals, nominal dose 0.48/0.3/0.1 mg/animal
[18] = mice, endotracheal MicroSprayer, Subgroup B, 3 animals

| Molecule | Droplets produced on nebulization [1] | ANIMALS ALIVE ([2]; Day 0, 1 hr post dose) | ANIMALS NORMAL ([2]; Day 0, 1 hr post dose) | ANIMALS ALIVE ([2]; Day 0, 8 hr post dose) | ANIMALS NORMAL ([2]; Day 0, 8 hr post dose) | Reported MIC [3] | concentration at 1 h [4, 6] | concentration at 8 h [4, 7] | concentration at 1 h [4, 8] | concentration at 8 h [4, 9] | Lung Concentration [4, 10] | Lung Concentration (μg/g) of Tissue [4, 10] | Plasma Concentration [4, 11] | Lung Concentration [4, 12] | Plasma Concentration [4, 13] | Lung levels compared to plasma levels ([4]; mice) | Plasma and lung levels 8 hours post dose compared to 1 hour post dose ([4]; mice) | Lung Levels: 8 hour (Range) [4] | concentration at 1 h [4, 14] | concentration at 1 h [4, 15] | other results |
| --- | --- | --- | --- | --- | --- | --- | --- | --- | --- | --- | --- | --- | --- | --- | --- | --- | --- | --- | --- | --- | --- |
| NCC[C@H](O)C(=O)N[C@@H]1C[C@H](N)[C@@H](O[C@H]2O[C@H](CN)[C@@H](O)[C@H](O)[C@H]2O)[C@H](O)[C@H]1O[C@H]1O[C@H](CO)[C@@H](O)[C@H](N)[C@H]1O [Amikacin] | droplets in the respirable range | 6 | 3 | 3 | 3 | 0.5 μg/mL (500 ng/mL) | 3990 to 9480 ng/g | 351 to 3060 ng/g | 2300 to 7140 ng/mL | 152 to 406 ng/mL | 4830 ng/g and 9480 ng/g and 3990 ng/g | 33.6 µg/g and 64.9 µg/g and 27.0 µg/g | 7140 ng/mL and 4820 ng/mL and 2300 ng/mL | 3060 ng/g and 443 ng/g and 351 ng/g | 406 ng/mL and 156 ng/mL and 152 ng/mL | higher | decreased |  |  |  | Lung Concentration (μg/g) of Tissue [4, 12]: 19.0 µg/g and 3.05 µg/g and 1.99 µg/g |
| C[C@H]1COc2c(N3CCN(C)CC3)c(F)cc3c(=O)c(C(=O)O)cn1c23 [Levofloxacin] |  | 6 | 3 | 3 | 3 |  | 1610 to 2270 ng/g | 1200 ng/g | 534 to 815 ng/mL | 53 ng/mL | 2270 ng/g and 1610 ng/g | 16.9 µg/g and 10.4 µg/g | 815 ng/mL and 534 ng/mL | BQL | BQL | increased | decreased | 7590 ng/g - ng/g of lung tissue | 13800 ng/g | 2140 ng/g | concentration at 8 h ([4]; lung, Lung Concentration (μg/g) of Tissue, mice, IT, 8 hr, individual animals): 7560 ng/g; concentration at 8 h ([4]; lung, Lung Concentration, mice, IT, 8 hr, individual animals): 1200 ng/g; concentration at 1 h [4, 16]: 556 ng/mL; concentration at 8 h [4, 17]: 53 ng/mL; Plasma levels 8 hour post dose (range) [4, 18]: 53.0 ng/mL; Plasma levels 8 hour post dose (range) ([4]; mice, endotracheal MicroSprayer, Subgroup B, 3 animals, listed as LEVOFLOXACIN): 53 ng/mL - |
| Cc1ncc([N+](=O)[O-])n1CCO [Metronidazole] | droplets in the respirable range | 6 | 3 | 3 | 3 | 250 μg/mL in (250,000 ng/mL) | 1070 to 1640 ng/g |  | 1670 to 2290 ng/mL | 42.3 ng/mL | 1070 ng/g and 1270 ng/g | 6.50 µg/g and 8.27 µg/g | 1670 ng/mL and 1880 ng/mL | BQL | BQL | increased | decreased | Not detected | 11700 ng/g | 1640 ng/g | concentration at 1 h [4, 16]: 2290 ng/mL; concentration at 8 h [4, 17]: 42.3 ng/mL; Lung levels 8 hour post dose (range) ([4]; mice, endotracheal MicroSprayer, Subgroup B): not detectable; Plasma levels 8 hour post dose (range) [4, 18]: 42.3 ng/mL - |
| B1 |  | 6 | 3 | 3 | 3 |  |  |  |  |  |  |  |  |  |  |  |  |  |  |  | IFN-g Level in mouse plasma ([5]; 1 hr post dose): not detectable and below detectable levels (BDL) and BDL^a and BDL; IFN-g Level in mouse plasma ([5]; 1 hr post dose, listed as INTERFERON-gamma): Not Detectable; IFN-g Level in mouse plasma ([5]; 8 hr post dose): not detectable and below detectable levels (BDL) and BDL; IFN-g Level in mouse plasma ([5]; 8 hr post dose, listed as INTERFERON-gamma): Not Detectable; Plasma and lung levels 8 hours post dose compared to 1 hour post dose ([5]; mice, endotracheal delivery): decreased; IFN-g Level in lung homogenate ([5]; 1 hr post dose): 1732.7 pg/mL and 1248.4 pg/mL and 1109.4 pg/mL; IFN-g Level in lung homogenate ([5]; 8 hr post dose): 1006.2 pg/mL and 1578.0 pg/mL and 1307.7 pg/mL; ng of IFN-g per gm of tissue ([5]; 1 hr post dose): 116.8 ng per gm of tissue and 87.9 ng per gm of tissue and 75.4 ng per gm of tissue; ng of IFN-g per gm of tissue, Mean ([5]; 1 hr post dose): 93.3 ng per gm of tissue; ng of IFN-g per gm of tissue ([5]; 8 hr post dose): 58.3 ng per gm of tissue and 72.2 ng per gm of tissue and 102.6 ng per gm of tissue; ng of IFN-g per gm of tissue, Mean ([5]; 8 hr post dose): 77.7 ng per gm of tissue |
